Test results from the supplement of paper PMC13380429.

Key:
Conditions in all cases: 72 h
[1] = test system: Vero E6; assay: drug sensitivity score (DSS) for viability; higher = more toxic; extreme values may be limits of the assay
[2] = test system: U2OS; assay: as above
[3] = test system: Caco-2; assay: as above
[4] = test system: Calu-3; assay: as above
[5] = test system: HepG2; assay: as above
[6] = test system: Vero E6; assay: cell viability relative to DMSO; higher = less toxic
[7] = test system: U2OS; assay: as above
[8] = test system: Caco-2; assay: as above
[9] = test system: Calu-3; assay: as above
[10] = test system: HepG2; assay: as above
[11] = test system: Vero E6; assay: relative viability EC50 (midpoint between 100% and the lowest measured viability); higher = less toxic
[12] = test system: U2OS; assay: as above
[13] = test system: Caco-2; assay: as above
[14] = test system: Calu-3; assay: as above
[15] = test system: HepG2; assay: as above

Structure (SMILES)	drug sensitivity score [1]	drug sensitivity score [2]	drug sensitivity score [3]	drug sensitivity score [4]	drug sensitivity score [5]	cell viability ([6]; 1 nM) [%]	cell viability ([6]; 10 nM) [%]	cell viability ([6]; 100 nM) [%]	cell viability ([6]; 1000 nM) [%]	cell viability ([6]; 10000 nM) [%]	cell viability ([7]; 1 nM) [%]	cell viability ([7]; 10 nM) [%]	cell viability ([7]; 100 nM) [%]	cell viability ([7]; 1000 nM) [%]	cell viability ([7]; 10000 nM) [%]	cell viability ([8]; 1 nM) [%]	cell viability ([8]; 10 nM) [%]	cell viability ([8]; 100 nM) [%]	cell viability ([8]; 1000 nM) [%]	cell viability ([8]; 10000 nM) [%]	cell viability ([9]; 1 nM) [%]	cell viability ([9]; 10 nM) [%]	cell viability ([9]; 100 nM) [%]	cell viability ([9]; 1000 nM) [%]	cell viability ([9]; 10000 nM) [%]	cell viability ([10]; 1 nM) [%]	cell viability ([10]; 10 nM) [%]	cell viability ([10]; 100 nM) [%]	cell viability ([10]; 1000 nM) [%]	cell viability ([10]; 10000 nM) [%]	relative viability EC50 [11] [µM]	relative viability EC50 [12] [µM]	relative viability EC50 [13] [µM]	relative viability EC50 [14] [µM]	relative viability EC50 [15] [µM]
CC(C)COC(=O)c1ccc(N)cc1 [isobutamben]	0	0	0	0	0.7	102	106	97.9	98.6	96.2	104	96.4	102	94.1	99.9	100	95.9	102	93.1	98.8	87.8	100	103	111	102	98.7	103	94.9	88	90.2	> 10	> 10	> 10	> 10	> 10
NNC(=O)c1ccncc1 [isoniazid]	0	0	0	0	0	97.8	106	97.9	97.9	98.4	101	96.6	101	96.7	102	97.4	99.4	103	91.7	97.6	110	98.7	100	99.2	99.8	107	108	100	103	93.7	> 10	> 10	> 10	> 10	> 10
COC(=O)N[C@H](C(=O)N1CC2(CC2)C[C@H]1c1nc(-c2ccc3c(c2)C(F)(F)c2cc(-c4ccc5[nH]c([C@@H]6[C@H]7CC[C@H](C7)N6C(=O)[C@@H](NC(=O)OC)C(C)C)nc5c4)ccc2-3)c[nH]1)C(C)C [ledipasvir]	0	0.5	0	0	0	94.3	99.7	91.9	99.7	108	100	99	101	94.2	86.6	93.8	93.5	98.1	94.5	87.5	95.9	106	108	110	97.7	97	109	96.6	96.7	101	> 10	> 10	> 10	> 10	> 10
CC(C)[C@@H]1CC[C@@H](C)C[C@H]1O [levomenthol]	0	0	0	0	0	95.3	108	101	91.2	94.9	105	101	101	101	95.5	93.3	84.4	84.7	94.4	104	98	92.9	88.9	96.8	90.5	102	92.8	101	104	103	> 10	> 10	> 10	> 10	> 10
CC1(C)O[C@H]2CC(=O)OC[C@]23[C@H]2CC[C@@]4(C)[C@H](c5ccoc5)OC(=O)[C@H]5O[C@]54[C@]2(C)C(=O)C[C@@H]13 [limonin]	0	0	0	0	0	97.1	97.1	93.7	98.6	104	95.6	98.6	107	99	100	97.5	95.8	106	98.5	105	104	89.5	109	99.6	102	102	105	91.5	111	97.2	> 10	> 10	> 10	> 10	> 10
Nc1ccc(O)c(C(=O)O)c1 [mesalazine]	0	0	0	0	0	105	104	103	102	92.2	103	101	103	96.8	104	112	98.6	109	97.7	100	109	100	107	96.5	102	112	100	103	104	97.3	> 10	> 10	> 10	> 10	> 10
CCC1(CC)C(=O)NC(=O)N(C)C1=O [metharbital]	0	0	0	0	0	93	96.8	94.1	92.3	103	100	93.4	99.1	92.9	97.1	94.3	97.7	104	102	93.1	110	92.6	110	98.4	95	91.8	104	95.9	102	103	> 10	> 10	> 10	> 10	> 10
